System: P. falciparum 3D7 growth, pLDH absorbance
Experiment: blood-stage malaria parasite growth potency – strain 3D7, dose response (AID 2305)

CCNc1cc(C(=O)N[C@@H](Cc2ccccc2)[C@H](O)CNCc2cccc(-c3cncnc3)c2)cc(N2CCCC2=O)c1 and COCCNCc1cccc(-c2ccc(CN(C(=O)Nc3ccccc3)C3CCN(Cc4ccccc4)CC3)cc2)c1 are within 1.5-fold of each other in IC50: 660 nM for the first, 770 nM for the second.

Compared with CC(=O)Nc1cccc(C(=O)Nc2cccc(-c3ccc(-c4nc5c(C)cccc5[nH]4)cc3)c2)c1, Cc1cccc2[nH]c(-c3cccc(-c4cccc(NC(=O)Nc5ccccc5)c4)c3)nc12 is 6.5-fold lower in IC50: 910 nM for the first, 140 nM for the second. The second is the more potent here.

First: O=C(Nc1cc(Cl)ccc1-n1cncn1)C1(c2ccccc2)CC1
Second: Cc1cc(C(=O)Nc2ccc(-c3ccccc3)cc2)no1
The IC50 of the first is 1.5-fold lower: 450 nM for the first, 690 nM for the second.

CN(CCCCCNC(=O)/C=C/c1ccc(Cl)c(Cl)c1)CCc1c[nH]c2ccccc12 and O=C(/C=C/c1ccc(Cl)c(Cl)c1)NCCCCCN1CCCC(C(=O)Nc2ccc(Cl)c(Cl)c2)C1 (stereo not drawn) are within 1.5-fold of each other in IC50: 870 nM for the first, 780 nM for the second.

First: COc1cc(NC(=O)N2CCOC(CCN3CCC(c4ccccc4)CC3)(c3ccc(Cl)c(Cl)c3)C2)cc(OC)c1OC (stereo not drawn)
Second: COc1cc(NC(=O)c2nn(CCCN3CCC(N4CCCC4)CC3)cc2-c2ccc(Cl)c(Cl)c2)cc(OC)c1OC
The IC50 of the first is 8-fold lower: 70 nM for the first, 560 nM for the second.

Going from FC(F)(F)c1ccc2nc(-c3ccc(-c4cccc(CNCCc5ccncc5)c4)s3)[nH]c2c1 to CNc1ccc(CNCc2cccc(-c3ccc(-c4nc5c(C)cccc5[nH]4)s3)c2)cc1, the IC50 rises from 120 nM to 990 nM (8.2-fold).

COc1ccc(Oc2ccc(-c3c(C)[nH]c(C)cc3=O)cc2)cc1 and CCCn1c(Sc2ccc(C#N)c([N+](=O)[O-])c2)nnc1-c1ccc(OC)cc1 are within 1.5-fold of each other in IC50: 610 nM for the first, 860 nM for the second.

First: CN1CCN(Cc2ccc(-c3ccc4c(Nc5ccc(Oc6ccccc6)cc5)ccnc4c3)o2)CC1
Second: CN1CCN(Cc2ccc(-c3cc4nccc(Nc5ccc(Oc6ccccc6)cc5)c4cc3Cl)o2)CC1
The IC50 of the first is 5.4-fold lower: 180 nM for the first, 980 nM for the second.

Cn1nc(-c2ccccc2F)c2cc(C(=O)Nc3cccnc3)sc21 and Cc1cc(NN=CC=Cc2ccccc2)c2cc(F)ccc2n1 are within 1.5-fold of each other in IC50: 810 nM for the first, 730 nM for the second.

C=CCOC(=O)N1CCC(CNCc2ccc(-c3cccc(-c4nc5ccc(F)cc5[nH]4)c3)cc2)C1 (stereo not drawn) and Fc1ccc2nc(-c3ccc(-c4ccc(CN5CCC(CCN6CCCCC6)CC5)cc4)cc3)[nH]c2c1 are within 1.5-fold of each other in IC50: 140 nM for the first, 130 nM for the second.

CC1(C)N=C(N)N=C(N)N1c1cc(Cl)c(Cl)c(Cl)c1 and Cc1c(Cc2ccccc2Cl)cnc2nc(N)nc(N)c12 are the same in IC50: 10 nM for the first, 10 nM for the second.

COc1ccc(N2CCN(CCCCNC(=O)c3ccc(NC(=O)c4cccc(Cl)c4)cc3)CC2)c(OC)c1 and COc1ccc(C(F)(F)F)cc1N1CCN(CCCCNC(=O)c2ccc(NC(=O)c3ccc(Cl)cc3)cc2)CC1 are the same in IC50: 910 nM for the first, 910 nM for the second.

NCc1ccc(-c2ccccc2CN(C(=O)Nc2ccccc2)C2CCN(Cc3ccccc3)CC2)cc1 and O=C(NC1CCCCN(Cc2ccccc2O)C1)c1ccc(-c2ccccc2)cc1 (stereo not drawn) are within 1.5-fold of each other in IC50: 880 nM for the first, 760 nM for the second.

Compared with CCCNC(=O)Nc1cc2cc(-c3ccc(CN4CCCC4)cc3)ccc2n2c(C)nnc12, Cc1ccc(CN2CCCN(Cc3cccc(NC(=O)c4ccc(Cl)c(Cl)c4)c3)CC2)cc1 is 1.7-fold lower in IC50: 1500 nM for the first, 900 nM for the second. The second is the more potent here.

CC(C)NCc1ccc(-c2cccc(NC(=O)c3ccc(F)cc3)c2)cc1 and CC(CN(C)C)C(=O)Nc1cccc(-c2ccc(-c3nc4ccccc4[nH]3)cc2)c1 (stereo not drawn) are within 1.5-fold of each other in IC50: 880 nM for the first, 710 nM for the second.

c1cc(CNC2Cc3ccccc3C2)cc(-c2cnc(N3CCNCC3)nc2)c1 and COc1ccc2nc(C)cc(NC3Cc4ccccc4C3)c2c1 are within 1.5-fold of each other in IC50: 940 nM for the first, 840 nM for the second.

O=C(Nc1ccc2c(c1)CCC2)c1ccc(N2CCN(c3ccncc3)CC2)cc1 and COc1ccccc1CNC(=O)c1ccc(N2CCN(c3ccncc3)CC2)cn1 are within 1.5-fold of each other in IC50: 1130 nM for the first, 1360 nM for the second.

First: CC(C)c1ccc(CN2CCCCC(NC(=O)c3cc(-c4cccc(F)c4)cs3)C2)cc1 (stereo not drawn)
Second: Cc1cc(NC(=O)c2cccs2)ccc1OC1CCN(Cc2ccc(F)cc2)CC1
The IC50 of the first is 2-fold higher: 940 nM for the first, 480 nM for the second. The second is the more potent here.

CC(C)(C)c1ccc(NC(=O)c2cccc(CN3CCCN(Cc4ccsc4)CC3)c2)cc1 and CCC(C)c1ccc(NC(=O)c2ccc(S(=O)(=O)Nc3ccc(OC)c(N4CCN(CC5CC5)CC4)c3)cc2)cc1 (stereo not drawn) are within 1.5-fold of each other in IC50: 760 nM for the first, 700 nM for the second.

Compared with CC(C)=CCN1CCC(C(=O)Nc2ccc(-c3nc4ccccc4[nH]3)cc2)CC1, COc1cc(C(=O)NC2CCN(Cc3ccccc3)CC2)ccc1-c1nc2cc(Cl)c(Cl)cc2[nH]1 is 1.8-fold lower in IC50: 910 nM for the first, 520 nM for the second. The second is the more potent here.

Compared with CC(=O)Nc1nc(C)c(-c2csc(Nc3ccc(Cl)cc3)n2)s1, CN(C)CCNCc1nc(-c2ccc3c(Nc4ccc(Cl)cc4F)ccnc3c2)cs1 is 3.1-fold higher in IC50: 260 nM for the first, 810 nM for the second. The first is the more potent here.

Going from COc1ccc(OC)c(C(O)CNC(C)C)c1 (stereo not drawn) to CCC(C)CC(=O)Nc1ccc(OC)c(S(=O)(=O)N[C@@H]2CCN(C#N)C2)c1 (stereo partly drawn), the IC50 rises from 60 nM to 1490 nM (25-fold).

COc1ccc2nccc(N3C[C@H]4C[C@@H]3CN4CCNCc3ccc4c(n3)NC(=O)CS4)c2n1 and COc1ccc2nccc(N3CCC(CCNCc4ccc5c(n4)NC(=O)CO5)CC3)c2n1 are within 1.5-fold of each other in IC50: 970 nM for the first, 1000 nM for the second.

Going from CN1CCN(c2ccc(Nc3c(C(N)=O)cnc4cc(-c5ccoc5)ccc34)cc2C(F)(F)F)CC1 to O=C(NC1CCN(c2ccnc3cc(Cl)ccc23)C1)c1ccc(C(F)(F)F)cc1 (stereo not drawn), the IC50 falls from 780 nM to 140 nM (5.6-fold).

O=[N+]([O-])c1ccc(Nc2nc(NN=Cc3cccc(O)c3)nc(N3CCCC3)n2)cc1 and Cc1cccc(-c2nc(Nc3ccncc3)c3ccc([N+](=O)[O-])cc3n2)n1 are within 1.5-fold of each other in IC50: 1080 nM for the first, 830 nM for the second.

Compared with COc1ccccc1-c1[nH]c2ccccc2c1CN1CCC(c2c(C)cccc2C)CC1, O=C(/C=C/c1ccc(Cl)c(Cl)c1)N1CCC(CN2CCC(c3c(-c4ccccc4)[nH]c4ccccc34)CC2)CC1 is 2.7-fold lower in IC50: 920 nM for the first, 340 nM for the second. The second is the more potent here.

First: CN(CCN)Cc1ccc(-c2ccc(-c3nc4ccc(F)cc4[nH]3)s2)cc1
Second: COc1ccc(NC(=O)Nc2cccc(-c3ccc(-c4nc5c(C)cccc5[nH]4)s3)c2)cc1
The IC50 of the first is 1.6-fold higher: 1070 nM for the first, 670 nM for the second.

Compared with O=C(CCCCCCc1ccccc1)Nc1ccc2nc3c(c(NCc4ccccc4)c2c1)CCCC3, Cc1cc(CNCCCCCCNCc2ccc(-c3ccccc3)cc2)ccc1O is 2.5-fold higher in IC50: 360 nM for the first, 900 nM for the second.

Cc1ccc(-c2noc(COc3ccccc3C(=O)NC3CCCC3)n2)cc1 and Cc1ccc(NC(=O)NC2CCN(CCC(NC(=O)Cc3ccccc3)c3ccc(Cl)c(Cl)c3)CC2)cc1 (stereo not drawn) are within 1.5-fold of each other in IC50: 880 nM for the first, 620 nM for the second.

CN(C)c1cccc2c(S(=O)(=O)Nc3cccc(CCN4CCC(N5CCCCC5)CC4)c3)cccc12 and O=S(=O)(NCCN1CCCC1)c1ccc(-c2ccc(CNCc3ccc(F)cc3)cc2)s1 are within 1.5-fold of each other in IC50: 980 nM for the first, 840 nM for the second.

COCCNCc1cccc(-c2ccc3c(Nc4ccc(F)cc4Cl)ccnc3c2)c1 and COc1ccc(Nc2nccc(-c3ccc(NC(=O)c4cc5cc(F)ccc5[nH]4)cc3)n2)cc1 are within 1.5-fold of each other in IC50: 680 nM for the first, 630 nM for the second.

O=C(NCC(c1ccc(C(F)(F)F)cc1)N1CCCC1)c1cc(-c2ccncc2)c(-c2cccc(O)c2)o1 (stereo not drawn) and O=C(Nc1cccc(-c2ccc(-c3nc4ccc(C(F)(F)F)cc4[nH]3)cc2)c1)Nc1ccc(Cl)c(Cl)c1 are within 1.5-fold of each other in IC50: 1060 nM for the first, 890 nM for the second.

Compared with CC(=O)Nc1ccccc1OCc1cc2cc(C(=O)N3CCC(N4C(=O)OCc5ccccc54)CC3)ccc2o1, Cc1cnc(-c2ccc(NC(=O)N3CCc4cc5nccc(N6CCN7CCC[C@H]7C6)c5cc43)c3ccccc23)o1 is 3.6-fold higher in IC50: 240 nM for the first, 860 nM for the second. The first is the more potent here.

COc1ccc2nccc([C@@H](O)CN3CCC(NC(=O)[C@@H]4Cc5ccccc5CN4C(=O)OC(C)(C)C)CC3)c2c1 and COc1ccc2nccc([C@@H](O)CN3CCC(NC(=O)c4ccc(Cl)c(Cl)c4)CC3)c2c1 are within 1.5-fold of each other in IC50: 890 nM for the first, 610 nM for the second.

CN(C)CCCNc1c2ccccc2nc2ccccc12 and CN1CCN(CCCCNc2c3ccccc3nc3ccccc23)CC1 are within 1.5-fold of each other in IC50: 1040 nM for the first, 700 nM for the second.

Going from COc1cccc(C(=O)NCc2cccs2)c1Oc1ccccc1 to COc1ccc(NC(=O)[C@H](Cc2ccccc2)Nc2cc(C)nc(NCc3ccccc3C)n2)cc1, the IC50 rises from 60 nM to 790 nM (13-fold). The first is the more potent here.

Going from CCC(Nc1noc(-c2c(-c3ccccc3)noc2C)n1)c1ccccc1 (stereo not drawn) to COc1ccc2nc(-c3ccccc3)cc(NN=Cc3ccc([N+](=O)[O-])o3)c2c1, the IC50 falls from 970 nM to 200 nM (4.8-fold). The second is the more potent here.

Cc1ccc(C(=O)Nc2cc(C(F)(F)F)cc(C(F)(F)F)c2)cc1[N+](=O)[O-] and O=C(Nc1cncc(NC(=O)c2ccc(Cl)c(Cl)c2)c1)c1ccc(Cl)c(Cl)c1 are within 1.5-fold of each other in IC50: 930 nM for the first, 730 nM for the second.

Compared with CC[C@H](NC(=O)c1ccc(NC(=O)OC(C)(C)C)cc1)C(=O)N[C@@H](CO)C(=O)NCCCCc1ccccc1, CCC[C@@H]([C@@H](CC1CCCCC1)C(=O)N[C@H](C(=O)Nc1nccs1)C(C)(C)SCCNC(=O)OCc1ccccn1)N(O)C=O is 5.2-fold lower in IC50: 830 nM for the first, 160 nM for the second.

Compared with COc1ccc2ncc(F)c(CCN3CCC(NCc4ccc5c(c4)CCO5)CC3)c2n1, Cc1cccc(-c2ccc(CNC3CCN(CC4Cn5c(=O)ccc6ccc(F)c4c65)CC3)cn2)c1 (stereo not drawn) is 2.2-fold higher in IC50: 680 nM for the first, 1530 nM for the second. The first is the more potent here.

CCN(CC)CCN(Cc1ccc(-c2ccc(C(F)(F)F)cc2)cc1)C(=O)Cn1c(CCc2cccc(F)c2F)nc(=O)c2ccc(C)cc21 and N#CCc1ccc(Nc2nccc(Nc3ccc(Oc4ccccc4)cc3)n2)cc1 are within 1.5-fold of each other in IC50: 670 nM for the first, 810 nM for the second.

First: CCCC(C)NC(=O)C(N)Cc1cccc(I)c1 (stereo not drawn)
Second: CCCCNCc1cc(Cl)c2ccccc2c1O
The IC50 of the first is 2.1-fold higher: 980 nM for the first, 460 nM for the second.

O=C(NCc1ccc(Cl)c(Cl)c1)c1cccc(C2CCCN(Cc3ccc4nc[nH]c4c3)C2)c1 (stereo not drawn) and Clc1cccc(CNc2nc(NCCc3cnc[nH]3)nc(NC3CCCCC3)n2)c1 are within 1.5-fold of each other in IC50: 930 nM for the first, 790 nM for the second.

COc1c(Br)cc(Br)cc1-c1ccc(CN2CC3CCC2CC3)[nH]1 and Cc1c[nH]c2cc(/C=C/C(=O)NC3CCC(CCN4CCc5ccc(C#N)cc5CC4)CC3)ccc12 (stereo not drawn) are within 1.5-fold of each other in IC50: 690 nM for the first, 800 nM for the second.

Compared with O=C(Cn1cc(C=C2SC(=NC3CCCC3)N(C3CCCC3)C2=O)c2ccccc21)N1CCCC1, O=C(N[C@@H](CC1CCCCC1)C(=O)NC1CCCCCC1)c1ccc(O)c(-c2ccc(Cl)c(Cl)c2)c1 is 3-fold lower in IC50: 300 nM for the first, 100 nM for the second.

CCN(CC)CCCC(C)Nc1ccnc2cc(C#N)ccc12 (stereo not drawn) and COc1cc2nc(NCCc3ccccc3)nc(NCc3ccc(C#N)cc3)c2cc1OC are within 1.5-fold of each other in IC50: 140 nM for the first, 150 nM for the second.

First: Cc1ccc2cc(C3NC(=O)c4ccccc4N3)c(Cl)nc2c1 (stereo not drawn)
Second: COc1cc(OC)c(NC(=O)C2c3ccccc3C(=O)N(CC(C)C)C2c2cccs2)cc1Cl (stereo not drawn)
The IC50 of the first is 19-fold higher: 940 nM for the first, 50 nM for the second.

CC(C)(C)SCC(O)Cn1c2ccc(Br)cc2c2cc(Br)ccc21 (stereo not drawn) and O=C(/C=C/c1ccc(F)c(C(F)(F)F)c1)N1CCC(CN2CCC(c3c[nH]c4ccccc34)CC2)CC1 are within 1.5-fold of each other in IC50: 1000 nM for the first, 920 nM for the second.

Cc1ccccc1C1CCN(C2CCC(NC(=O)/C=C/c3cc(F)ccc3C(F)(F)F)CC2)CC1 (stereo not drawn) and C/C=C/C=C/C1=NCCc2cc(OCCC)ccc21 are within 1.5-fold of each other in IC50: 950 nM for the first, 910 nM for the second.

— PubChem BioAssay AID2305 (GlaxoSmithKline (GSK), 2010)
